Source: article PMC5605198, “MELK is not necessary for the proliferation of basal-like breast cancer cells” (eLife, 2017)
pIC50: −log10 of the molar value. Read-outs that look alike come from different tables or passages of the source.

Columns and labels:
[1] = target: T1, MELK (Homo sapiens, UniProt Q14680); assay: Z’-LYTE enzymatic assay; assay type: biochemical
[2] = target: T1, MELK; assay: Cellular kinase engagement assay (KiNativ), ATP-biotin probe pull-down; assay type: cell-based; details: MDA-MB-468 cells, different doses, with MG132, 1 hour
From the text: (§1) After confirming HTH-01-091 as a potent MELK inhibitor in biochemical assays, we next investigated whether HTH-01-091 engages MELK in cells. We performed a KiNativ assay to measure HTH-01-091 engagement with the ATP binding pocket of MELK, which would prevent active-site labeling from a lysine-reactive ATP-biotin probe ([Patricelli et al., 2007]). […] As a control, ERK1/2 pull-down was not affected by HTH-01-091 treatment, consistent with our profiling data showing no binding affinity of HTH-01-091 to ERK1/2 (Figure 2A, Figure 1—source data 1).
(§2) Figure 2. […] (A) Immunoblots analyzing the pull-down levels of MELK and ERK1/2 by ATP-biotin probes and streptavidin beads from MDA-MB-468 cells treated with different doses of HTH-01-091 and […] MG132 for 1 hour. […] See also Figure 2—figure supplement 1 for rescue experiments using carfilzomib and MLN4924. (C) 3-day antiproliferation assays of HTH-01-091 and other MELK inhibitors tested in MDA-MB-468 (basal) and ZR-75-1 (luminal) cells. Values represent two independent experimental mean ±SD. Error bars shorter than the height of the symbol are not drawn. […] Figure 2—figure supplement 1. […]
(§3) MDA-MB-468 cells on 10 cm plates were treated with HTH-01-091 at indicated concentrations and MG132 (10 μM) for an hour. […] The beads were boiled at 95°C for 10 min and analyzed by immunoblotting.

[3] = test system: ERK1/2; assay: as above; assay type: cell-based; details: MDA-MB-468 cells, with MG132, 1 hour
From the text: as §1, §2, §3

[4] = test system: WT and MELK−/− MDA-MB-468 cells; assay: 3-day proliferation assays comparing WT and MELK−/− cells; assay type: cell-based; details: clone E9 vs clone C7
From the text: We compared a WT clone (clone E9) and a MELK−/− clone (clone C7) with the parental cell line, and observed no significant difference in growth rate or cell cycle distribution (Figure 3A,B,C).
Figure 3. WT and MELK−/− MDA-MB-468 cells have similar growth rates, cell cycle distribution, and sensitivity to MELK inhibitors. (A) Immunoblots for MELK and GAPDH in WT (clone E9) and MELK−/− (clone C7) clones isolated from MDA-MB-468 cells transfected with sgMELK-3 and Cas9. See also Figure 3—figure supplements 1 and 2, and Figure 3—source data 1 for the details of the generation of MELK−/− clones. (B) 5-day proliferation curves comparing the growth rates of parental, WT, and MELK−/− MDA-MB-468 cells. Values represent two independent experimental mean ±SD. (C) Cell cycle analysis comparing WT and MELK−/− MDA-MB-468 cells. Values represent triplicate mean ±SD. […] Values represent duplicate mean ±SD. Error bars shorter than the height of the symbol are not drawn. Figure 3—source data 1. Genotype analysis of single cell clones selected from MDA-MB-468 cells transfected with Cas9/sgMELK-3. Figure 3—figure supplement 1. CRISPR/Cas9-mediated knockout of MELK in MDA-MB-468 cells. (A) Tracking of Indels by Decomposition (TIDE) analysis ([Brinkman et al., 2014]) of MDA-MB-468 cells transfected with Cas9/sgMELK-3 and enriched by the transfection marker OFP. […]

[5] = test system: AMPK; assay: ICKP radiometric kinase assay; details: 1 μM

T1 sequence (Q14680 whole entry): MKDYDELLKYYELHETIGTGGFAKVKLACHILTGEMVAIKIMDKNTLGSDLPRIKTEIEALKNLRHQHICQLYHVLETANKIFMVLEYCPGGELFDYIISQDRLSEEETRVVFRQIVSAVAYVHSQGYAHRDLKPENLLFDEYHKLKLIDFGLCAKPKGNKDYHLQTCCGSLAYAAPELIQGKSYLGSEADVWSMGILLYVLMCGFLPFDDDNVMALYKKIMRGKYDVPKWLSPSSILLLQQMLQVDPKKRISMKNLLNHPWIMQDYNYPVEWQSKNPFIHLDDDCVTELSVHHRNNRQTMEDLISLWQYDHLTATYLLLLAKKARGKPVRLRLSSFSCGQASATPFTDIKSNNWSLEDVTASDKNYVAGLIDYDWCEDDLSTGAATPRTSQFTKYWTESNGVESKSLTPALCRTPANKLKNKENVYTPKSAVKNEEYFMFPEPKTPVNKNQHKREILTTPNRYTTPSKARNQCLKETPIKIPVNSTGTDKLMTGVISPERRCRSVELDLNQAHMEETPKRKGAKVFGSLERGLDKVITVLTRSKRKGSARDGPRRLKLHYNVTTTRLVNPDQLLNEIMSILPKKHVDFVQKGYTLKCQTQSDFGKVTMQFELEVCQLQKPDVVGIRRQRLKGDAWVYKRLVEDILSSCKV

## CN(C)C[C@H]1CC[C@H](N2C(=O)NCc3cnc4ccc(-c5cc(Cl)c(O)c(Cl)c5)cc4c32)CC1 [HTH-01-091, 9-(3,5-dichloro-4-hydroxyphenyl)-1-(trans-4-((dimethylamino)methyl)cyclohexyl)-3,4-dihydropyrimido[5,4 c]quinolin-2(1H)-one]
[1]; Z’-LYTE assay at [ATP]=apparent Km, read-out: Biochemical IC50 MELK
  pIC50: 7.98
[1]; measured by Z’LYTE biochemical assay, class symbols in Figure 2C, read-out: Potency (MELK)
  pIC50: > 7.70
[1]; note column of Table 3, read-out: Note: MELK IC50
  pIC50: 7.98
[2]
  MELK pull-down by streptavidin beads (ATP-biotin probe): dose-dependently decreased MELK pull-down
[3]
  ERK1/2 pull-down (control): not affected

## CC(=O)c1cnc2ccc(-c3cc(Cl)c(O)c(Cl)c3)nc2c1N[C@H]1CC[C@H](CN(C)C)CC1 [OTSSP167]
[4]
  difference in sensitivity between WT and MELK−/− cells: did not observe differences in cell viability
[5]
  % AR (% kinase activity remaining): 2%
